What is called IC50 is the concentration needed to halve the response being measured. A higher IC50 goes with lower potency.

Assay [1] deals with peripheral blood mononuclear cells (PBMC). The assay is described as follows: Stimulation of the secretion of IFN-α from PBMC (HTRF). It is filed as cell-based, human. The settings on record: lowest concentration giving cytokine level at least 3 times the minimum detection limit; 24 hours. How it is done: The ability of the compound of the present application to stimulate the secretion of IFN-α from PBMC was determined by the following experimental method:
Compounds were diluted in pure DMSO at a maximum concentration of 5 mM in 4-fold gradients for a total of 9 points. Then 4 μL of the compound were taken and added to 196 μL of RMPI 1640 medium containing 10% FBS and mixed. 50 μL per well were taken and added into a new 96-well cell culture plate.
All reagents were equilibrated to room temperature, and a 250 mL culture flask was taken and 60 mL blood and PBS+2% FBS were added therein, and the mixture was gently diluted by pipetting. […] The cells were resuspend with RMPI 1640 medium containing 10% FBS and counted, adjusted the amount of PBMC to 3.33×10^6 cells/mL, and 150 μL were taken and added to the cell culture plate to which the compound had been added, and cultured at 37° C. in a 5.0% CO2 incubator for 24 hours. […]
It was read in the HTRF mode on the PHERAStar. […]
The ability of the compound of the present application and the control compound (prepared by the method of embodiment 21 of WO2016023511) to stimulate the secretion of IFN-α from PBMC were determined by the above test, and the measured MEC values were as shown in Table 2.

Assay [2] concerns the target T1, CYP3A4 (Homo sapiens, UniProt P08684).
T1 construct: Human liver microsomes (Corning Gentest); tissue Corning Gentest; host or cells: human liver microsomes
The assay is described as follows: Inhibition of the midazolam metabolic site on human liver microsome CYP3A4. It is filed as in vitro ADME. Particulars: human liver microsomes, midazolam substrate, 30 minutes. How it is done:
The enzymatic activity of the compound of the present application against the Midazolam metabolite site on human liver microsome CYP3A4 was determined by the following experimental method:
CYP probe substrate (15 μM Midazolam, SIGMA UC429) and positive control inhibitor (Ketoconazole, SIGMA K1003).
100 mM PBS buffer was configured, and 2.5 mg/mL microsome solution and 5 mM NADPH solution were prepared with this buffer, and the 5× concentration compound working solution was diluted with PBS (150, 50, 15, 5, 1.5, 0.15, 0.015, 0 μM). The 5× concentration of Ketoconazole working solution (150, 50, 15, 5, 1.5, 0.15, 0.015, 0 μM) was diluted with PBS. Midazolam working solution was diluted to a concentration of 15 μM with PBS.
20 μL each of 2.5 mg/mL microsome solution, 15 μM Midazolam working solution, MgCl2 solution and compound working solution (150, 50, 15, 5, 1.5, 0.15, 0.015, 0 μM, each concentration was setted differently reaction system) were taken and mixed evenly. The compound was replaced with the same concentration of Ketoconazole at the positive control group. At the same time, 5 mM NADPH solution was pre-incubated for 5 minutes at 37° C. After 5 minutes, 20 μL NADPH were added into the wells, and the reaction was started and incubated for 30 minutes. All samples were incubated for two samples. […]

T1 sequence (P08684 whole entry): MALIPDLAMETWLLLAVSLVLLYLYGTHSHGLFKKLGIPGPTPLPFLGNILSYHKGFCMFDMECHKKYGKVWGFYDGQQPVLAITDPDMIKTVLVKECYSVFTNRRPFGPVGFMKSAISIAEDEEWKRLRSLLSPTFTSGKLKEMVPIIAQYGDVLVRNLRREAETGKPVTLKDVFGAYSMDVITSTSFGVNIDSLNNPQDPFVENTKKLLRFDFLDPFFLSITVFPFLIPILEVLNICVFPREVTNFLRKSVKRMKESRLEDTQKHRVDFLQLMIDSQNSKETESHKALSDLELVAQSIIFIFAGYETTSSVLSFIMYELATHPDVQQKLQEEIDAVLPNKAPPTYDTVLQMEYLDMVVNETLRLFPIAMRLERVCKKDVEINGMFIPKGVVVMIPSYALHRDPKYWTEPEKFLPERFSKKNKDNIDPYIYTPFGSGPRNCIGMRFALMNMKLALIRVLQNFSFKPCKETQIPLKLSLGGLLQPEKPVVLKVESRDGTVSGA

Take `CCCCOc1nc(N)c2[nH]cc(Cc3ccc(CN4CCCC4)cc3)c2n1` [Embodiment 21 of WO2016023511]: in assay [1], the “MEC (Minimal Effective Concentration) to stimulate the secretion of IFN-α from PBMC” value amounted to 5.5 nM. Moreover, the midpoint of inhibition in assay [2], the IC50, lay at 1.02 µM.

With `CCCCOc1nc(N)c2[nH]nc(Cc3ccc(CN4CCCC4)cc3)c2n1` [Embodiment 1, 5-Butoxy-3-(4-(pyrrolidin-1-ylmethyl)benzyl)-1H-pyrazolo[4,3-d]pyrimidin-7-amine], in assay [1], the “MEC (Minimal Effective Concentration) to stimulate the secretion of IFN-α from PBMC” value is 0.28 nM. In assay [2], inhibition was half-maximal at 16.7 µM (IC50).

For the origin of these results see patent US11111249B2, “Heteroaryl-pyrazole derivative, and preparation method therefor and medical application thereof” (Jiangsu Hengrui Medicine Co., Ltd., priority 2017, dated 2021).
